## NC(=O)CN(CC(N)=O)C1CCCCCCC1 [CO-IDAm, Cyclooctylimidodiacetamide]
  melting point: 152 to 154 °C

Reference: patent publication US20170128489A1 (priority 2014, published 2017)
